# Assay results published in patent publication US20050232924A1, “Antibodies and/or conjugates thereof which bind to the amino terminal fragment of urokinase, compositions and uses thereof” (Attenuon LLC, priority 2003, published 2005).
# Assays:
# [1] = test system: MDA-MB-231 cells; experiment: Distribution of Dox by fluorescence microscopy; type: cell-based, human; conditions: 1.6 μM, 24 h; FIG. 14
# Method: To further characterize the ATN-291-Dox conjugates the distribution of Dox was monitored by fluorescence microscopy. MDA-MB-231 cells grown on glass chamber slides were incubated with either 1.6 μM Dox or 1.6 μM ATN-291-Dox for 24 h under the same conditions used for the MTT assay. Following incubation, the supernatant was removed and the cells washed extensively with PBS. Cells were fixed in paraformaldehyde, mounted and observed by fluorescence microscopy.
# [2] = test system: MDA-MB-231 cells; experiment: MTT proliferation assay; type: cell-based, human; conditions: 10 μM; FIG. 13A
# Method: The ability of ATN-291-Dox to inhibit proliferation of MDA-MB-231 cells was tested in an MTT assay. […] A dose titration was performed with the ATN-291-Dox conjugate. As shown in FIG. 10B the conjugate inhibited proliferation with an IC-50 of ˜1.6 μM.
compound,measurement,setting,value
"COc1cccc2c1C(=O)c1c(O)c3c(c(O)c1C2=O)C[C@@](O)(C(=O)CO)C[C@@H]3O[C@H]1C[C@H](N)[C@H](O)[C@H](C)O1 [Dox, doxorubicin]",cellular localization of Dox fluorescence,[1],primarily localized to the nucleus of treated cells
same,effect on cell proliferation,[2],significantly inhibited proliferation
